Results taken from PubChem BioAssay AID328 (DTP/NCI, 2004).
Inconclusive results and toxic doses are left out. The calls were made as follows: active = survival T/C of 150% or more; inactive = T/C below 125% in these data.

Test system: BDF1 mice, P388 leukemia ip, median survival T/C
Assay: NCI In Vivo Anticancer Drug Screen. Data for tumor model P388 Leukemia (intraperitoneal) in B6D2F1 (BDF1) mice
Settings: endpoint: median survival time, higher = longer survival
Outline: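 Reported as T/C, where T is the survival measurement in dosed animals and C the same measurement in vehicle controls.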

[1] = dose: 100.0 mg/kg/injection, schedule: Q04DX003 (ip), vehicle: Klucel (hydroxypropylcellulose) (HPC)
[2] = dose: 200.0 mg/kg/injection, schedule: Q04DX003 (ip), vehicle: Klucel (hydroxypropylcellulose) (HPC)
[3] = dose: 400.0 mg/kg/injection, schedule: Q04DX003 (ip), vehicle: Klucel (hydroxypropylcellulose) (HPC)
[4] = dose: 6.25 mg/kg/injection, schedule: Q01DX009 (ip), vehicle: saline with Tween-80

Measured: T/C

COC1C=COC2(C)Oc3c(C)c(O)c4c(c3C2=O)/C(=N/C2CCC(O)OC2C)C=C(NC(=O)/C(C)=C\C(=O)C2CC2C(O)C(C)C(O)C(C)C(OC(C)=O)C1C)C4=O (stereo unspecified)
inactive: dose: 4.6 mg/kg/injection, schedule: Q01DX009 (ip), vehicle: saline with Tween-80 101 % of control | dose: 9.25 mg/kg/injection, schedule: Q01DX009 (ip), vehicle: saline with Tween-80 105 % of control | dose: 18.5 mg/kg/injection, schedule: Q01DX009 (ip), vehicle: saline with Tween-80 89 % of control | dose: 37.0 mg/kg/injection, schedule: Q01DX009 (ip), vehicle: saline with Tween-80 101 % of control

O=C(N=C1C=CC(=NC(=O)OCc2ccccc2)C=C1)OCc1ccccc1
inactive: [1] 95 % of control | [2] 100 % of control | [3] 100 % of control

Cc1nc(N)nc(N)c1-c1ccc(Cl)c(Cl)c1
active: dose: 8.0 mg/kg/injection, schedule: Q02DX009 (ip), vehicle: Klucel (hydroxypropylcellulose) (HPC) 154 % of control | dose: 25.0 mg/kg/injection, schedule: Q04DX003 (ip), vehicle: saline with Tween-80 172 % of control
inactive: dose: 0.85 mg/kg/injection, schedule: Q01DX009 (ip), vehicle: saline with Tween-80 100 % of control | dose: 1.0 mg/kg/injection, schedule: Q02DX005 (ip), vehicle: Klucel (hydroxypropylcellulose) (HPC) 103 % of control | dose: 1.0 mg/kg/injection, schedule: Q02DX009 (ip), vehicle: Klucel (hydroxypropylcellulose) (HPC) 107 % of control | dose: 2.0 mg/kg/injection, schedule: Q02DX005 (ip), vehicle: Klucel (hydroxypropylcellulose) (HPC) 111 % of control | dose: 2.0 mg/kg/injection, schedule: Q02DX009 (ip), vehicle: Klucel (hydroxypropylcellulose) (HPC) 117 % of control | dose: 3.0 mg/kg/injection, schedule: Q01DX009 (ip), vehicle: saline with Tween-80 122 % of control | dose: 4.0 mg/kg/injection, schedule: Q02DX005 (ip), vehicle: Klucel (hydroxypropylcellulose) (HPC) 101 % of control | dose: 4.0 mg/kg/injection, schedule: Q02DX009 (ip), vehicle: Klucel (hydroxypropylcellulose) (HPC) 121 % of control | dose: 4.5 mg/kg/injection, schedule: Q01DX009 (ip), vehicle: saline with Tween-80 118 % of control | [4] 86 % of control | dose: 8.0 mg/kg/injection, schedule: Q02DX005 (ip), vehicle: Klucel (hydroxypropylcellulose) (HPC) 97 % of control | dose: 16.0 mg/kg/injection, schedule: Q02DX009 (ip), vehicle: Klucel (hydroxypropylcellulose) (HPC) 117 % of control | dose: 37.5 mg/kg/injection, schedule: Q04DX003 (ip), vehicle: saline with Tween-80 118 % of control

CC(C)CCCC(=O)CCCCCCC(=O)CCN(O)C(=O)C(N)CO (stereo unspecified)
inactive: dose: 6.25 mg/kg/injection, schedule: Q01DX009 (ip), vehicle: Klucel (hydroxypropylcellulose) (HPC) 98 % of control | dose: 12.5 mg/kg/injection, schedule: Q01DX009 (ip), vehicle: Klucel (hydroxypropylcellulose) (HPC) 94 % of control | dose: 25.0 mg/kg/injection, schedule: Q01DX009 (ip), vehicle: Klucel (hydroxypropylcellulose) (HPC) 94 % of control

O=C1c2cccc3cc([N+](=O)[O-])cc(c23)C(=O)N1CCN1CCCC1
active: [4] 157 % of control | dose: 12.5 mg/kg/injection, schedule: Q01DX009 (ip), vehicle: saline with Tween-80 177 % of control

COc1ccc(CCC(C)=O)cc1
inactive: dose: 100.0 mg/kg/injection, schedule: Q01DX009 (ip), vehicle: Klucel (hydroxypropylcellulose) (HPC) 100 % of control | [1] 95 % of control | [2] 110 % of control | dose: 400.0 mg/kg/injection, schedule: Q01DX009 (ip), vehicle: Klucel (hydroxypropylcellulose) (HPC) 109 % of control | [3] 105 % of control

Cc1[nH]nc(-c2ccon2)c1N=O
inactive: dose: 50.0 mg/kg/injection, schedule: Q01DX009 (ip), vehicle: saline with Tween-80 111 % of control | dose: 100.0 mg/kg/injection, schedule: Q01DX009 (ip), vehicle: saline with Tween-80 113 % of control

C[N+](C)(Cc1ccccc1)/N=C(\[O-])Cc1ccccc1
inactive: dose: 50.0 mg/kg/injection, schedule: Q01DX001 (ip), vehicle: saline 109 % of control | dose: 100.0 mg/kg/injection, schedule: Q01DX001 (ip), vehicle: saline 104 % of control

N#CC(C#N)=C1SCS1
inactive: dose: 3.12 mg/kg/injection, schedule: Q01DX009 (ip), vehicle: saline with Tween-80 123 % of control | [4] 123 % of control

CCCCCCC/C=C\c1cnc2nc(N)nc(N)c2n1
inactive: dose: 100.0 mg/kg/injection, schedule: Q04DX003 (ip), vehicle: saline with Tween-80 92 % of control | dose: 200.0 mg/kg/injection, schedule: Q04DX003 (ip), vehicle: saline with Tween-80 89 % of control | dose: 400.0 mg/kg/injection, schedule: Q04DX003 (ip), vehicle: saline with Tween-80 92 % of control
